Test results from ChEMBL document CHEMBL4483862, “Open-source discovery of chemical leads for next-generation chemoprotective antimalarials” (2018).

Test system: Plasmodium berghei
Assay: Luciferase/luciferin-expressing antifolate-resistant parasites were used to infect a culture of HepG2 cells that were pre-incubated with compounds. Infected hepatocytes emit light due to the luciferase reaction. Assay results are presented as the percent inhibition of light emission compared to control. […]
Format: functional
Conditions: sporozoite; for IC50: read-out: LUCIFERASE INFECTION ASSAY - IC50; for IC90: read-out: LUCIFERASE INFECTION ASSAY - IC90

| SMILES | IC50 | IC90 |
| --- | --- | --- |
| NC(Cc1ccc(C(F)(F)F)cc1)c1csc(Nc2nncc3ccccc23)n1 (stereo not drawn) | > 7.94 µM | > 7.94 µM |
| CC(=O)Nc1ccc(-c2ccnc3c2CC(C(=O)Nc2cccc(C(F)(F)F)c2)O3)cc1 (stereo not drawn) | 4.23 µM | > 7.48 µM |
| NC(Cc1ccc(F)cc1)c1csc(Nc2nncc3ccccc23)n1 (stereo not drawn) | > 9.03 µM | > 9.03 µM |
| CC(=O)Nc1cc(-c2ccc(C(=O)NC3CC3)cc2)cn2c(-c3ccc(F)c(Cl)c3)cnc12 | > 7.13 µM | > 7.13 µM |
| NC(Cc1ccc(F)cc1)c1csc(Nc2cc(NCc3ccco3)ncn2)n1 (stereo not drawn) | > 8.04 µM | > 8.04 µM |
| Cc1cc(C)nc(Nc2nc(C(N)Cc3ccc(C(F)(F)F)cc3)cs2)n1 (stereo not drawn) | > 8.39 µM | > 8.39 µM |
| Cc1cnc(C)c(Nc2nc(C(N)Cc3ccc(C(F)(F)F)cc3)cs2)n1 (stereo not drawn) | > 8.39 µM | > 8.39 µM |
| CN(C)CCNC(=O)c1cccc(-c2cnc3c(NC=O)cc(-c4cccc(C(F)(F)F)c4)cn23)c1 | > 6.66 µM | > 6.66 µM |
| CCSc1ccc(-c2cc(NC=O)c3ncc(-c4cccc(C(=O)NCCN(C)C)c4)n3c2)cc1 | > 6.77 µM | > 6.77 µM |
| CCOCCC(=O)Nc1ccc2c(c1)c(=O)n(C)n2Cc1cccc(C(F)(F)F)c1 | > 7.83 µM | > 7.83 µM |
| CCOC(=O)C1(C)CCN1C(=O)c1cc(OC)c(OC)c(OC)c1 (stereo not drawn) | > 9.78 µM | > 9.78 µM |
| CCOC(=O)C1(C)CCCN1C(=O)c1cccs1 (stereo not drawn) | > 12.3 µM | > 12.3 µM |
| CCCS(=O)(=O)NC(=O)C1(C)CCCN(C(=O)c2ccccc2OC)C1 (stereo not drawn) | > 8.63 µM | > 8.63 µM |
| CCCNC(=O)C1(C)CCCN(C(=O)c2cccc(OC(C)=O)c2C)C1 (stereo not drawn) | > 9.16 µM | > 9.16 µM |
| COc1ccc(-c2cnc3sc(NCc4ccncc4)nn23)cc1OC | > 8.98 µM | > 8.98 µM |
| Cn1cccc1C(=O)N1CC2ON=C(c3ccc(F)cc3)C2C1 (stereo not drawn) | > 10 µM | > 10 µM |
| Cc1ccccc1CN1CCN2C=C(C(=O)Nc3ccc(OCc4ccccc4)cc3)OC2=NC1=O | > 10 µM | > 10 µM |
| OCc1ccc(-c2cnc3ccc(-c4ccoc4)nn23)cc1 | 4.97 µM | > 10 µM |
| CC(C)(C(=O)NCc1ccccc1Br)n1cc(-c2ccc(OCCN3CCCC3)cc2)cn1 | > 10 µM | > 10 µM |
| Cc1ccccc1CN1CCN2C(C(=O)NCc3cccc(Cl)c3)=COC2=NC1=O | > 10 µM | > 10 µM |
| CN(C)C(=O)c1cccc(-c2cnc3c(NC=O)cc(-c4ccsc4)cn23)c1 | > 8.45 µM | > 8.45 µM |

| SMILES | IC50 | IC90 |
| --- | --- | --- |
| COc1cccc(Cn2c3ccc(NC(=O)CC4CCCCC4)cc3c(=O)n2C)c1 | > 8.1 µM | > 8.1 µM |
| CC(=O)Oc1cccc(C(=O)N2CC3ON=C(c4c(F)cccc4Cl)C3C2)c1C (stereo not drawn) | > 10 µM | > 10 µM |
| CN(C)c1ccc(-c2nnc3ccccn23)cc1 | 6.56 µM | > 13.8 µM |
| CCCCOc1ccc(Nc2nc(C(N)COCc3ccccc3)cs2)nn1 (stereo not drawn) | > 8.26 µM | > 8.26 µM |
| Cn1c(=O)c2cc(NC(=O)CC(C)(C)C)ccc2n1Cc1ccccc1 | > 9.39 µM | > 9.39 µM |
| OCc1cccc(-c2cnc3ccc(-c4cccc(F)c4)nn23)c1 | 3.42 µM | 4.21 µM |
| CCOC(=O)C1CCCN(C(=O)Cc2cccc3ccccc23)CC1 (stereo not drawn) | > 9.72 µM | > 9.72 µM |
| N#Cc1ccccc1S(=O)(=O)NC(=O)Cn1cc(-c2cccc(F)c2)nn1 | > 8.56 µM | > 8.56 µM |
| COc1cc(-c2cnc3sc(NCC4CCOCC4)nn23)ccc1O | > 9.16 µM | > 9.16 µM |
| COc1cc(-c2cnc3sc(NCc4cccs4)nn23)ccc1O | > 9.21 µM | > 9.21 µM |
| COc1cc(NC(=O)C(C)(C)n2cc(-c3cccnc3)cn2)cc(OC)c1 | > 10 µM | > 10 µM |
| Cc1nc(C(=O)N2CCC(C)(C(=O)NS(=O)(=O)C3CC3)C2)c(C)o1 (stereo not drawn) | > 9.28 µM | > 9.28 µM |
| CCCCOc1ccc(Nc2nc(C(N)CCc3ccccc3)cs2)nn1 (stereo not drawn) | > 8.6 µM | > 8.6 µM |
| CCC(=O)N1CCCC(C(=O)NCc2ccc(C(C)C)cc2)CC1 (stereo not drawn) | > 9.99 µM | > 9.99 µM |
| COc1ccc(OC)c(S(=O)(=O)N2[C@@H]3CC[C@@H](C3)[C@H]2c2nc3cccc(OCc4ccc(F)cc4)c3[nH]2)c1 | > 10 µM | > 10 µM |
| c1csc(-c2cnc3sc(NCc4ccncc4)nn23)c1 | > 10.5 µM | > 10.5 µM |
| COCC(=O)N1CCCC(C)(C(=O)NCc2cnc(C)cn2)C1 (stereo not drawn) | > 10.3 µM | > 10.3 µM |
| COc1cc(-c2cnc3ccc(Cc4ccc(F)cc4)nn23)cc(OC)c1OC | 6.26 µM | > 10 µM |
| COc1cccc(CN2CCN3C=C(C(=O)Nc4ccc(Oc5ccccc5)cc4)OC3=NC2=O)c1 | > 10 µM | > 10 µM |
| c1ccc(Oc2cccc(-c3ccc4ncc(-c5ccoc5)n4n3)c2)cc1 | > 10 µM | > 10 µM |
| Nc1cccc(-c2ccc3ncc(-c4cccc(C(F)(F)F)c4)n3n2)c1 | 1.48 µM | 2.09 µM |

| SMILES | IC50 | IC90 |
| --- | --- | --- |
| O=C(Nc1cccnc1)C1=COC2=NC(=O)N(Cc3ccccc3C(F)(F)F)CCN12 | > 10 µM | > 10 µM |
| CS(=O)(=O)c1ccc(-c2ccc3ncc(-c4cccc(C(F)(F)F)c4)n3n2)cc1 | 2.78 µM | > 10 µM |
| CCCNC(=O)C1(C)CCN(CCCC(=O)c2ccc(C)c(C)c2)C1 (stereo not drawn) | > 9.58 µM | > 9.58 µM |
| CCNC(=O)C1CCCN(Cc2noc(-c3ccccc3OC)n2)CC1 (stereo not drawn) | > 9.21 µM | > 9.21 µM |
| CCNC(=O)C1CCCN(CCOc2ccc(Cl)cc2)CC1 (stereo not drawn) | > 10.2 µM | > 10.2 µM |
| FC(F)(F)c1cccc(-c2ccc3ncc(-c4ccc5c(c4)OCO5)n3n2)c1 | > 10 µM | > 10 µM |
| Cc1ccccc1CN1CCN2C=C(C(=O)Nc3ccc(Oc4ccccc4)cc3)OC2=NC1=O | > 10 µM | > 10 µM |
| CC(=O)c1cccc(-c2ccc3ncc(-c4ccoc4)n3n2)c1 | > 10 µM | > 10 µM |
| COc1cc(Nc2cc3c(cn2)cc(-c2cnn(C)c2)n3Cc2ccccc2)cc(OC)c1OC | 3.03 µM | 3.72 µM |
| CC(C)c1ccc(NC(=O)C2=CN3CCN(Cc4ccc(F)cc4)C(=O)N=C3O2)cc1 | > 10 µM | > 10 µM |
| COc1ccccc1-c1ccc2ncc(-c3ccc(CO)cc3)n2n1 | 7.5 µM | > 10 µM |
| CNC(=O)c1cnc(N2CCN(Cc3ccccc3C#N)C2=O)s1 | > 10 µM | > 10 µM |
| COc1cc(CNc2nccc3nc(-c4ccccc4Cl)[nH]c23)cc(OC)c1OC | 8.57 µM | > 10 µM |
| NS(=O)(=O)c1ccc(CCNc2nn3c(-c4ccc(Cl)cc4)cnc3s2)cc1 | > 7.6 µM | > 7.6 µM |
| OCc1ccc(-c2cnc3ccc(-c4cccc(C(F)(F)F)c4)nn23)cc1 | > 10 µM | > 10 µM |
| CCNC(=O)C1(C)CCCN1C(=O)c1ccc(OC)cc1 (stereo not drawn) | > 11.4 µM | > 11.4 µM |
| CC(C)=CCn1c2ccc(NC(=O)OCCF)cc2c(=O)n1C | > 10.3 µM | > 10.3 µM |
| CC(=O)Nc1cccc(-c2ccc3ncc(-c4ccc(CO)cc4)n3n2)c1 | 2.73 µM | 8.06 µM |
| CC(C)(C(=O)Nc1ccon1)n1cc(-c2ccc(OCCN3CCCC3)cc2)cn1 | > 10 µM | > 10 µM |
| O=C(NCc1cccc(Cl)c1)C1=COC2=NC(=O)N(Cc3cccc(Cl)c3)CCN12 | > 10 µM | > 10 µM |
| COc1ccc(-c2nnc(Nc3ccc4c(c3)c(=O)n(C)n4CC=C(C)C)[nH]2)cc1 | > 8.16 µM | > 8.16 µM |

| SMILES | IC50 | IC90 |
| --- | --- | --- |
| COCCNC(=O)Cn1nnc(C)c1COc1ccc2ccccc2c1 | > 9.31 µM | > 9.31 µM |
| COc1ccc(-c2cnc3c(NC(C)=O)cc(-c4ccc5[nH]ccc5c4)cn23)cc1OC | > 7.74 µM | > 7.74 µM |
| FC(F)(F)c1cccc(-c2cnc3ccc(-c4cccs4)nn23)c1 | > 10 µM | > 10 µM |
| COc1cc(Nc2nccc3nc(-c4ccc5c(c4)OCCO5)[nH]c23)cc(OC)c1OC | 0.494 µM | 1.67 µM |
| CC(C)(C)c1ccc(OCC(=O)Nc2cnn(C(C)(C)C(=O)NCc3ccccc3)c2)cc1 | > 10 µM | > 10 µM |
| O=C(Nc1ccc(Oc2ccccc2)cc1)C1=CN2CCN(Cc3ccccc3)C(=O)N=C2O1 | > 10 µM | > 10 µM |
| c1ccc2cc(-c3cnc4sc(NCc5ccncc5)nn34)ccc2c1 | > 9.23 µM | > 9.23 µM |
| O=C(NC(c1ccccc1)c1ccccc1)[C@H]1C[C@H](O)[C@@H](CO)O1 | > 10.1 µM | > 10.1 µM |
| CCCNC(=O)C1(C)CCN(Cc2ccc3ccccc3n2)C1 (stereo not drawn) | > 10.6 µM | > 10.6 µM |
| CS(=O)(=O)c1ccc(-c2cnc3ccc(Cc4ccc(F)cc4)nn23)cc1 | 2.9 µM | 3.4 µM |
| FC(F)(F)Oc1cccc(-c2ccc3ncc(-c4ccoc4)n3n2)c1 | > 10 µM | > 10 µM |
| N#Cc1cccc(CN2CCN3C(C(=O)Nc4ccc(-n5cccc5)cc4)=COC3=NC2=O)c1 | > 10 µM | > 10 µM |
| CC(C)N1CCC(C)(C(=O)Nc2ccc3c(c2)C(=O)N(C)C3=O)C1 (stereo not drawn) | > 10 µM | > 10 µM |
| Cn1cc(-c2cc3cnc(Nc4ccc(C(N)=O)cc4)cc3n2Cc2ccccc2)cn1 | > 10 µM | > 10 µM |
| COc1cc(NC(=O)C(C)(C)n2cc(-c3ccc(OCCN4CCCC4)cc3)cn2)cc(OC)c1 | > 10 µM | > 10 µM |
| CC(C)(C(=O)NCCc1ccccc1)n1cc(-c2ccc3c(c2)OCCO3)cn1 | > 10 µM | > 10 µM |
| CC(C)CNc1nn2c(-c3ccc(O)cc3)cnc2s1 | > 11.4 µM | > 11.4 µM |
| CCC(=O)N1CCC1(C)C(=O)NCc1ccc2c(c1)OCO2 (stereo not drawn) | > 10.8 µM | > 10.8 µM |
| COCCNC(=O)C1(C)CCCN(C(=O)c2ccc(OC)cc2OC)C1 (stereo not drawn) | > 9.06 µM | > 9.06 µM |
| CCOC(=O)C1(C)CCCCN1C(=O)c1ccc(C(=O)OC)cc1 (stereo not drawn) | > 9.9 µM | > 9.9 µM |
| CS(=O)(=O)c1ccc(CN2CCN3C(C(=O)Nc4cccc(C(F)(F)F)c4)=COC3=NC2=O)cc1 | > 10 µM | > 10 µM |
